The results in this text go back to paper PMC11583123, “Linker Chemistry and Connectivity Fine-Tune the Immune Response and Kinetic Solubility of Conjugated NOD2/TLR7 Agonists” (Bioconjugate Chemistry, 2024).

Series [1] in a line: Kinetic solubility in PBS (UHPLC, method of Hoelke et al.). It is filed as physicochemical. The following applies: PBS, 5% DMSO. As to the method: Second, the kinetic solubility of all individual building blocks (compounds 4-7) and conjugates was determined (results are listed in Table 1) in order to highlight how fine-tuning of linker traits can impact this physicochemical property. Kinetic solubility refers to the maximum solubility of a compound when it precipitates from a supersaturated solution, which is metastable and not in equilibrium; it was measured using the method described by Hoelke et al.[34] The length and composition of the linker as well as linkage site are important for activity and physicochemical characteristics of conjugates, which in turn affect their pharmacokinetic profiles. In general, the benzylic COOH was exploited exclusively as the linker attachment site in TLR7 agonist-featuring conjugates, while two potential linkage sites were considered in the structure of NOD2 agonist. […] In conjugates 22-24 and 29, the moieties were connected via the γ-COOH group of the NOD2 agonist. […] It has to be kept in mind that among the polyalkylethers, the structural requirements for aqueous solubility are poised toward the (−OCH2CH2−)n unit while (−OCH2CH2CH2−)n is not beneficial in this respect.[35] […]
suspension was filtered through a syringe filter (0.45 μm), diluted 2.25-fold with acetonitrile, and analyzed with UHPLC. The solubility was quantified with a five-point calibration curve from 500 to 0.8 μM generated by dilution of the original DMSO solution into a 1:1 mixture of acetonitrile and PBS. The content of DMSO in all solutions was fixed to 5% by adding the respective amounts of DMSO. The column used was Waters Acquity UPLC BEH C18 (1.7 μm, 2.1 × 50 mm). The eluent was a mixture of 0.1% TFA in water (A) and acetonitrile (B), with a gradient of (%B): 0−6 min, 5−95%; 6−8 min, 95%; 8−8.5 min, 95−5%. The column was thermostated at 40 °C.
3.1. Hek-Blue NOD2, TLR7 and TLR8 cells. […]
(BioTek Synergy microplate reader; Winooski, VT, USA). EC50 values were calculated using Prism

Another series deals with T1, human NOD2 (Homo sapiens, UniProt Q9HC29).
T1 construct: host or cells: HEK-Blue NOD2 (HEK293-derived)
In words: HEK-Blue NOD2 NF-κB SEAP reporter assay. Type of series: cell-based. Conditions: HEK-Blue NOD2 cells. The source says: (§1) The building blocks and synthesized conjugates were initially assessed for their receptor-specific activities toward NOD2, TLR7 and TLR8 using the commercially available HEK-Blue NOD2, TLR7 and TLR8 reporter cell lines. These cell lines were derived from HEK293 cells by cotransfection of human NOD2/TLR7/TLR8 and an NF-κB-inducible secreted embryonic alkaline phosphatase (SEAP). Activation of NOD2/TLR7/TLR8, and subsequently of NF-κB, leads to the expression and secretion of SEAP, the levels of which can be quantified colorimetrically. […]
(§2) 3.1. Hek-Blue NOD2, TLR7 and TLR8 cells.
(§3) HEK-Blue NOD2, TLR7, and TLR8 cells (Invivogen, San Diego, CA, USA) were cultured according to the manufacturer instructions in Dulbecco’s modified Eagle’s medium (Sigma-Aldrich, St. Louis, MO, USA) supplemented with 10% heat-inactivated fetal bovine serum (Gibco), 2 mM L-glutamine (Sigma-Aldrich), 100 U/mL penicillin (Sigma-Aldrich), 100 µg/mL streptomycin (Sigma-Aldrich), and 100 µg/mL Normocin (Invivogen) for two passages. All subsequent passages of NOD2 and TLR8 cells were cultured in medium additionally supplemented with 100 µg/mL Zeocin and 30 µg/mL Blasticidin (Invivogen) and of TLR7 cells with 100 µg/mL Zeocin and 10 µg/mL Blasticidin. […]
(§4) The tested compounds were dissolved in DMSO and further diluted in culture medium to the desired final concentrations, such that the final DMSO concentration never exceeded 0.1%. […]
(§5) 3.4 NOD2/TLR7/TLR8 NF-kB reporter assay
(§6) HEK-Blue NOD2 cells (25,000 cells/well), TLR7 and TLR8 cells (40,000 cells/well) were seeded in 96-well plates in 100 µL HEK-Blue detection medium (Invivogen, San Diego, CA, USA) and treated with […]
(§7) corresponding vehicle (0.1% DMSO). After 18 h of incubation (37 °C, 5% CO2), secreted embryonic
(In general: Reporter assays use an easily measured gene product as a stand-in for the process of interest.)

Another series deals with T2, human TLR8 (Homo sapiens, UniProt Q9NR97).
T2 construct: host or cells: HEK-Blue TLR8 (HEK293-derived)
T2 sequence (Q9NR97 27-1041): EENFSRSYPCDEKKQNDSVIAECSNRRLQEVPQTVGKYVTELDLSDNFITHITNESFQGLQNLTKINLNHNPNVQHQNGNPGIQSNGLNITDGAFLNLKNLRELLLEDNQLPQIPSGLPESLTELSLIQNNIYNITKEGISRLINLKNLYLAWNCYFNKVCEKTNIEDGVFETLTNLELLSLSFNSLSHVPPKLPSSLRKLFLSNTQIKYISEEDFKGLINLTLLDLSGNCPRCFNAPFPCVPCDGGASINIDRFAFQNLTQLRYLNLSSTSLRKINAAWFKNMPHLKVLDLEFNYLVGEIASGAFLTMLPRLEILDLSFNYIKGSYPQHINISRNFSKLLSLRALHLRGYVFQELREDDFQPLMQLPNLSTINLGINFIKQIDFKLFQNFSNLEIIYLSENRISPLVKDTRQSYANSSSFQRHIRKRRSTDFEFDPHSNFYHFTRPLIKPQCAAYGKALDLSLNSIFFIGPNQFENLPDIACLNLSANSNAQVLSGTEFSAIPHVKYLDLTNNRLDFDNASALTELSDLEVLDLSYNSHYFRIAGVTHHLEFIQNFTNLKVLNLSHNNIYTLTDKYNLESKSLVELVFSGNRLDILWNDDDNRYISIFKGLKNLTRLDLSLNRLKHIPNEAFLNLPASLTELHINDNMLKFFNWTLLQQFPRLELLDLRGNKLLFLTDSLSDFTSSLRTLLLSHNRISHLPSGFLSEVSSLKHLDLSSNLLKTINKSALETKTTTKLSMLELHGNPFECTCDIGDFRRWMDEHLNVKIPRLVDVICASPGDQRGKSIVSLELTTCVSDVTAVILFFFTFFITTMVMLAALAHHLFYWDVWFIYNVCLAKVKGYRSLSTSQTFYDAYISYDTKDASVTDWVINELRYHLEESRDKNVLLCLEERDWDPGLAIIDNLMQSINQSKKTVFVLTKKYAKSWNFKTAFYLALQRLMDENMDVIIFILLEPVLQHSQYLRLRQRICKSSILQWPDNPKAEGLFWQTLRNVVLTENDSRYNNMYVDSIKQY
In words: HEK-Blue TLR8 NF-κB SEAP reporter assay. The following applies: HEK-Blue TLR8 cells; for EC50: 18 h, eight concentrations (1 nM to 10 μM), mean ± SEM; for TLR8 agonistic activity (in words): up to 10 μM. Type of series: cell-based.
From the text: as §1, §2, §3, §4, §5, §6, §7

Setting [2] is: aqueous with cosolvent or surfactant or cyclodextrin, kinetic from dmso stock.
Where [3] appears, read: 18 h, eight concentrations (1 nM to 10 μM), mean ± SEM.

T1 sequence (Q9HC29 whole entry): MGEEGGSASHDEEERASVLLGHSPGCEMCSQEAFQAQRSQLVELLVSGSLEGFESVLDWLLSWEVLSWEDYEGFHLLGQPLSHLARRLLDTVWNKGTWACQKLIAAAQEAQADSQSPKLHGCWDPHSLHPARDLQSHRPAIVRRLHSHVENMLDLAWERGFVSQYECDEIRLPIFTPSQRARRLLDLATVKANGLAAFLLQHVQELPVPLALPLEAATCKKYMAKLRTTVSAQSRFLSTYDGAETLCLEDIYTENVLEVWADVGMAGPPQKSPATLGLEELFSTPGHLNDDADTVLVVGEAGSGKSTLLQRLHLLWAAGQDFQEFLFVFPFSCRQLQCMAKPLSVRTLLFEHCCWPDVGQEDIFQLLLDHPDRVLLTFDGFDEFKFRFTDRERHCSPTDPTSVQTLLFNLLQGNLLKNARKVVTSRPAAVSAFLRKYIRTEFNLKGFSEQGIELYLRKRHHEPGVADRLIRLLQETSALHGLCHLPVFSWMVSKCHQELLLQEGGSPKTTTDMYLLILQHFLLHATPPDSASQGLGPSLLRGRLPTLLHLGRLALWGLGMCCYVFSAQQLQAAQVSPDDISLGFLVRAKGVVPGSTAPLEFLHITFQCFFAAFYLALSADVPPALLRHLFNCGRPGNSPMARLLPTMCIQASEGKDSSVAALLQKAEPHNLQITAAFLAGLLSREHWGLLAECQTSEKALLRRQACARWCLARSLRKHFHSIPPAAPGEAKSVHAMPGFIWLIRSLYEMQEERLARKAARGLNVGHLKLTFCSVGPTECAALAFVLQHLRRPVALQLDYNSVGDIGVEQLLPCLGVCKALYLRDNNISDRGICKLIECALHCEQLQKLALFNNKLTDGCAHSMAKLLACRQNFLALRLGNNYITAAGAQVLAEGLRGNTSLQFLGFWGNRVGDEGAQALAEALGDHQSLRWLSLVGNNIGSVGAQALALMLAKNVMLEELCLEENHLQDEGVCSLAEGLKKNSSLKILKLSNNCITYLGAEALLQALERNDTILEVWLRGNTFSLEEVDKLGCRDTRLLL

As for `CCOCc1nc2c(N)nc3ccccc3c2n1CC(C)(C)NC(=O)CCCCCNC(=O)CC[C@@H](NC(=O)[C@@H](NC(=O)CNC(=O)/C=C/c1ccc(O)c(OC)c1)C(C)C)C(=O)OCC` [compound 33], the results for the solubility (kinetic) in series [1] and in series [1] (setting [2]) were 404.1 µM and 404 µM, respectively. Besides, the EC50 at human NOD2 (setting [3]) and on human TLR8 was more than 10 µM throughout. Further, the “TLR8 agonistic activity (in words)” value at human TLR8 is recorded as “neither 32 nor 33 were able to induce any TLR8 agonistic activity”.

For the molecule `CCOCc1nc2c(NC(=O)CCCCCNC(=O)CC[C@@H](NC(=O)[C@@H](NC(=O)CNC(=O)/C=C/c3ccc(O)c(OC)c3)C(C)C)C(=O)OCC)nc3ccccc3c2n1CC(C)(C)O` [compound 32], the values for the kinetic solubility in series [1] and in series [1] (setting [2]) were 437.3 µM and 437 µM, respectively. Further, the EC50 was 7.2 µM at human NOD2, 7.23 ± 0.499 µM on human NOD2 (setting [3]) and more than 10 µM at human TLR8. Further, the “TLR8 agonistic activity (in words)” value at human TLR8 is recorded as “neither 32 nor 33 were able to induce any TLR8 agonistic activity”.

As usually defined, the solubility (kinetic) is solubility judged after dilution from a stock solution rather than from solid. For orientation: EC50 means the concentration needed to bring the measured effect to its halfway point.
